Source: patent US6184230A, “Anti-helicobacter pylori pharmaceutical composition” (Yamanouchi Pharmaceutical Co., Ltd., priority 1997, dated 2001)
In brackets after ≈: the same amount, converted by molar mass.

Tests used:
Assay type in all cases: cell-based
[1] = test system: Staphylococcus aureus FDA 209P; test: In vitro test on facultative anaerobes and aerobes (MIC), Example 3; conditions: FDA209P, Muller-Hinton agar, 37° C., 18 hours
Procedure: (§1) An in vitro test on facultative anaerobes and aerobes was carried out in the following manner.
(§2) Preparation of Antibacterial Substance-containing Agar Plate
(§3) The substance to be evaluated was dissolved in 100% dimethyl sulfoxide (DMSO) and diluted by 2-fold serial dilution. Each of the dilution solutions was put into a sterilized round Petri dish and mixed with 10 ml of Muller-Hinton agar medium which had been sterilized and kept at 50° C., and the mixture was solidified. Final concentration of DMSO becomes 1% or less.
(§4) Preparation of Inoculation Material and Judgment of Test Results
(§5) Each strain to be tested was cultured overnight in an incubator set at 37° C. using Muller-Hinton broth, and the resulting broth was diluted to a density of about 10^6 cells/1 ml using Muller-Hinton broth. About 5 μl portion of the dilution was inoculated onto the surface of the drug-containing agar medium using a microplanter. The thus inoculated agar plate was cultured at 37° C. for 18 hours in an incubator. After completion of the culturing, the agar plate was observed, and the minimum drug concentration by which cell growth was not observed was defined as MIC.

[2] = test system: Pseudomonas aeruginosa NCTC 10490; test: as above; conditions: NCTC10490; Pseudomonas aeruginosa NCTC 10490, Muller-Hinton agar, 37° C., 18 hours
Procedure: as §1, §2, §3, §4, §5

Escherichia coli 0-1 = test: as above; conditions: 01; Escherichia coli 0-1, Muller-Hinton agar, 37° C., 18 hours
Procedure: as §1, §2, §3, §4, §5

[3] = test system: Helicobacter pylori ATCC 43504; test: Measurement of antibacterial activity (in vitro, MIC on Brucella agar), Example 2; conditions: ATCC43504, Brucella agar medium (0.1% β-cyclodextrin), 37° C., 3 days (72 hours), N2 80%, CO2 15%, O2 5%
Procedure: An in vitro test of the aforementioned substance was carried out in the following manner.
Measurement of antibacterial activity
as §2
as §3, with “Brucella” for “Muller-Hinton”, “medium (0.1% β-cyclodextrin)” for “medium”
as §4
A Helicobacter pylori strain, for example Helicobacter pylori ATCC 43504, was cultured at 37° C. for 3 days in a multi gas incubator (N2 : 80%, CO2 : 15%, O2: 5 %) using Brucella agar medium (containing 5% calf serum albumin) and then prepared into a cell suspension of about 10^8 cells/1 ml using Brucella broth based on its turbidity. The cell suspension was diluted 100 times with Brucella broth, and about 5 μl portion of the dilution was inoculated onto the surface of the drug-containing agar medium using a microplanter. The thus inoculated agar plate was cultured at 37° C. for 3 days (72 hours) in the aforementioned multi gas incubator. […]

[4] = test system: Peptostreptococcus productus CAYA 12-2; test: In vitro test on anaerobes (MIC), Example 4; conditions: Blautia producta, CAYA122, 18 h
Procedure: (§6) An in vitro test on anaerobes was carried out in the following manner.
as §2
as §3, with “GAM” for “Muller-Hinton”
as §4
(§7) Each strain to be tested was cultured overnight at 37° C. in GAM broth using an anaerobic culturing apparatus whose inside atmosphere had been replaced with a mixed gas system of 80% N2, 10% CO2 and 10% H2, and the resulting broth was diluted to a density of about 10^6 cells/1 ml using the same GAM broth. About 5 μl portion of the dilution was inoculated onto the surface of the drug-containing agar medium using a microplanter. The thus inoculated agar plate was cultured at 37° C. for 18 hours using the anaerobic culturing apparatus. After completion of the culturing, the agar plate was observed, and the minimum drug concentration by which cell growth was not observed was defined as MIC.

[5] = test system: Bifidobacterium bifidum CAYA 21-1; test: In vitro test on anaerobes (MIC), Example 4; conditions: CAYA211, 18 h
Procedure: as §6, §2
as §3, with “GAM” for “Muller-Hinton”
as §4, §7

[6] = test system: Bacteroides fragiris GAI 5562; test: In vitro test on anaerobes (MIC), Example 4; conditions: GAI5562, 18 h
Procedure: as §6, §2
as §3, with “GAM” for “Muller-Hinton”
as §4, §7

Helicobacter pylori = test: Anti-Helicobacter pylori activity (general statement)
other bacteria = test: Selectivity, influence upon other bacteria (general statement)

| SMILES | MIC [1] | MIC [2] | MIC (Escherichia coli 0-1) | MIC [3] | MIC [4] | MIC [5] | MIC [6] | anti-Helicobacter pylori activity (Helicobacter pylori) | influences upon other bacteria (other bacteria) | selectivity (other bacteria) |
| --- | --- | --- | --- | --- | --- | --- | --- | --- | --- | --- |
| CCCCCC/C=C/Cc1c(C)c(=O)c2ccccc2n1O [1-hydroxy-2-(2-trans-nonenyl)-3-methyl-4(1H)-quinolone] | ≥ 12.5 mg/L | ≥ 12.5 mg/L | ≥ 12.5 mg/L | 0.025 mg/L (≈ 0.0835 µM) | > 25 mg/L | > 25 mg/L | > 25 mg/L |  |  |  |
| CCCCCC/C=C/Cc1c(C)c(=O)c2ccccc2n1O [YL-02729S] |  |  |  |  |  |  |  | excellent anti-Helicobacter pylori activity | does not exert influences upon other bacteria | high selectivity |
